Assay results taken from patent US20240261398A1 (priority 2018, published 2024).
Where “and” joins values, the source holds several entries; their conditions need not be identical. Equal values may be shown once.

Assays:
MA-CA04 virus [1] = system: MA-CA04 virus; parameters: species or system BALB/c mice; details: mouse, in vivo
MA-CA04 virus [2] = system: MA-CA04 virus; parameters: species or system mice; details: mouse, in vivo

| Structure (SMILES) | Mean value of antibody titers (Log 10 PFU/g) ± Standard deviation, Lung, 3 days after infection (MA-CA04 virus [1]) | Mean value of antibody titers (Log 10 PFU/g) ± Standard deviation, Nasal concha, 3 days after infection (MA-CA04 virus [1]) | Survival rate (%) (MA-CA04 virus [2]) | further results |
| --- | --- | --- | --- | --- |
| O=C([O-])c1ccccc1.[Na+] [Sodium benzoate] | 6.7 ± 0.2 Log 10 PFU/g and 7.0 ± 0.2 Log 10 PFU/g | 6.4 ± 0.1 Log 10 PFU/g and 6.2 ± 0.04 Log 10 PFU/g | – | virus titers in the nasal concha and the lung, six days after the infection (MA-CA04 virus [1]): no virus titers were detected in some mice |
| O=S([O-])[O-].[Na+].[Na+] [Sodium sulfite] | 7.0 ± 0.1 Log 10 PFU/g | 6.1 ± 0.3 Log 10 PFU/g and 6.2 ± 0.2 Log 10 PFU/g | – | – |
| O.O=P([O-])([O-])OCC(O)CO.[Ca+2] (stereo not shown) | – | – | 75 | influence on body weight (FIG. 3 A and C) (MA-CA04 virus [2]): the same level as the previously known adjuvant Poly(I:C); survival rate (FIG. 3 B and D) (MA-CA04 virus [2]): the same level as Poly(I:C) or was slightly lower than Poly(I:C) |
| C[C@@H]1O[C@@H](OC[C@H]2O[C@@H](Oc3c(-c4ccc(O)c(O)c4)oc4cc(O)cc(O)c4c3=O)[C@H](O)[C@@H](O)[C@@H]2O)[C@H](O)[C@H](O)[C@H]1O [Rutin hydrate] | – | – | 75 | – |
| Cc1cc2nc3c(=O)[nH]c(=O)nc-3n(C[C@H](O)[C@H](O)[C@H](O)CO)c2cc1C [Riboflavin] | – | – | 25 | – |
| COC(=O)[C@H](Cc1ccccc1)NC(=O)[C@H](CC(=O)O)NCCC(C)(C)C [Neotame] | 7.5 ± 0.3 Log 10 PFU/g and 7.5 ± 0.2 Log 10 PFU/g | 6.1 ± 0.05 Log 10 PFU/g and 6.3 ± 0.1 Log 10 PFU/g | – | virus titers in the nasal concha and the lung, six days after the infection (MA-CA04 virus [1]): no virus titers were detected in some mice |
| CC(/C=C/C=C(\C)C(=O)O[C@@H]1O[C@H](CO[C@@H]2O[C@H](CO)[C@@H](O)[C@H](O)[C@H]2O)[C@@H](O)[C@H](O)[C@H]1O)=C\C=C\C=C(C)\C=C\C=C(/C)C(=O)O[C@@H]1O[C@H](CO[C@@H]2O[C@H](CO)[C@@H](O)[C@H](O)[C@H]2O)[C@@H](O)[C@H](O)[C@H]1O [Crocin] | – | – | 50 | – |
| CC(/C=C/C=C(C)/C=C/C(=O)O)=C\C=C\C=C(C)\C=C\C=C(C)\C=C\C(=O)O (stereo in doubt) [Norbixin] | 7.2 ± 0.3 Log 10 PFU/g and 7.4 ± 0.3 Log 10 PFU/g | – | 50 | – |
